The values that follow are results of earlier work, collected in patent US20060287520A1, “Synthesis of salinosporamide A and analogues thereof” (priority 2005, published 2006).

For series [1] the following is noted: read-out: in vitro cytotoxicity IC50; background statement; cell line not given.
The next series relates to 20S proteasome. The note with it: times more potent than omuralide, same molecular target (20S proteasome).

For the molecule `C[C@@]12OC(=O)[C@]1([C@@H](O)[C@@H]1C=CCCC1)NC(=O)[C@@H]2CCCl` [Salinosporamide A], the IC50 in series [1] was ~10 nM. Further, the “potency relative to omuralide (2)” value in the series on 20S proteasome is “approximately 35 times”.
